Reference: patent US7211436B1, “Compositions and methods for regulating abscisic acid-induced closure of plant stomata” (The Penn State Research Foundation, priority 1999, dated 2007)

Assays:
[1] = system: guard cells (stomatal aperture); experiment: Stomatal closure in abaxial epidermal peels of transformed V. faba leaves; type: cell-based, Vicia faba; details: for change in half aperture of stomata, closure: 1 h, illuminated
Protocol: (§1) Analysis of AAPK mutants for stomatal aperture changes and anion channel activation. V. faba leaves were biolistically transformed with the pGFP, pAAPK-GFP, or pAAPK(K43A)-GFP constructs. The V. faba leaves were bombarded with gold particles (Bio-Rad) coated with one of the DNA constructs. Bombardment was via a particle delivery system 1000/He (Bio-Rad) as described. (J. Marc et al., 1998, Plant Cell 10:1927).
(§2) Abaxial epidermal peels were isolated and the transformed guard cells were assayed for ABA-mediated prevention of stomatal opening and for stomatal closure stimulated by ABA, CO2 or darkness. Conditions were as in Assman, S., and Baskin, T. (1998) J. Exp. Bot. 49:163 except that the incubation solution was 10 mM MES, 30 mM KCl, pH=6.1, with or without 50 μM {±} cis,trans-ABA. For closure experiments, the transformed leaves were illuminated with 0.20 mmol m^−2 s^−1 white light for 2.5 h to open the stomata. The abaxial epidermal peels were placed in incubation solution and treated with either darkness, 25 μM {±} cis,trans-ABA or with 700 ppm CO2 for 1 h.

slow anion channels = experiment: Whole-cell patch-clamp of guard cell protoplasts, anion channel activation; type: cell-based, Vicia faba
Protocol: Anion channel activation was measured in guard cell protoplasts. Whole-cell patch-clamp experiments were performed according to established methods. Pipette solution contained 100 mM KCl, 50 mM tetramethylammonium, 2 mM MgCl, 6.7 mM EGTA-(Tris)2, 3.35 mM CaCl2, 10 mM HEPES, pH=7.1 (Tris) and 5 mM Mg-ATP. Bath solution contained 40 mM CaCl2, 2 mM MgCl and 10 mM MES-Tris pH5.6. Osmolalities were adjusted with sorbitol to 500 mosmol/kg (in the pipette) or 470 mosmol/kg (in the bath). Protein kinase inhibitor K-252a (Calbiochem) was prepared as a stock solution at 2 mM in dimethyl sulfoxide (DMSO).

native AAPK = experiment: Native AAPK activity; type: biochemical, Vicia faba
Protocol: Isolation and Identification of ABA-Activated Protein Kinase (AAPK). Guard cell protoplasts (2×10^6; 99.6% pure) were prepared from Vicia faba. Protoplasts were treated with either darkness, ABA or elevated CO2 concentrations prior to protein isolation. Protoplast proteins were extracted and subjected to 2-dimensional gel electrophoresis. Separation was via 12% SDS-polyacrylamide gel electrophoresis (SDS-PAGE). Kinase autophosphorylation activity of subsequently renatured proteins was detected by established methods.

[2] = system: guard cells (stomatal aperture); experiment: ABA-mediated prevention of stomatal opening in abaxial epidermal peels of transformed V. faba leaves; type: cell-based, Vicia faba; details: ABA 50 μM, illuminated
Protocol: as §1, §2

AAPK = experiment: Kinase activity of immunoprecipitated GFP fusion proteins with histone III-S as substrate; type: biochemical, Vicia faba; details: cells transfected with pAAPK-GFP; protoplasts treated with ABA prior to isolation of the proteins
Source text: Analysis of AAPK mutants and hybrid expression DNA constructs for ABA-activated protein kinase activity. 1.5×10^7 V. faba guard cell protoplasts were transfected with either the vector, pGFP, or the constructs, pAAPK-GFP or pAAPK(K43A)-GFP by polyethylene glycol (PEG)-mediated DNA transfer. After uptake and expression, protoplasts were lysed and recombinant protein was immunoprecipitated with anti-GFP peptide antibodies (Clontech) and protein A-Sepharose CL-4B (Amersham Pharmacia Biotech). Immunoprecipitated proteins were assayed for kinase activity using histone III-S (Sigma) as substrate.

[3] = AAPK(K43A)-GFP transformed guard cells, ABA 25 μM or CO2 700 ppm
[4] = AAPK(K43A)-GFP, untransformed guard cells, ABA 25 μM or CO2 700 ppm

Structure (SMILES): COC(=O)[C@@]1(O)C[C@H]2O[C@]1(C)n1c3ccccc3c3c4c(c5c6ccccc6n2c5c31)C(=O)NC4 [K-252a]
- effect on ABA-induced stomatal closure ([1]; kinase inhibitor, untransformed cells): inhibits
- effect on ABA regulation of anion channels (slow anion channels; untransformed cells): inhibits
- effect on native AAPK activity (native AAPK): inhibits

Structure (SMILES): O=C=O [CO2]
- change in half aperture of stomata, closure [1, 3]: −2.23 ± 0.44 (36) micrometers
- change in half aperture of stomata, closure [1, 4]: −2.31 ± 0.46 (36) micrometers

Structure (SMILES): CC1=CC(=O)CC(C)(C)C1(O)/C=C/C(C)=C\C(=O)O (racemic) [ABA, abscisic acid]
- change in half aperture of stomata, closure [1, 3]: −0.36 ± 0.26 (56) micrometers
- change in half aperture of stomata, closure [1, 4]: −2.55 ± 0.21 (56) micrometers
- change in half aperture of stomata, closure ([1]; AAPK-GFP column, untransformed guard cells, ABA 25 μM): −2.58 ± 0.24 (36) micrometers
- change in half aperture of stomata, closure ([1]; AAPK-GFP transformed guard cells, ABA 25 μM): −2.59 ± 0.30 (36) micrometers
- change in half aperture of stomata, closure ([1]; GFP column, untransformed guard cells, ABA 25 μM): −2.54 ± 0.35 (36) micrometers
- change in half aperture of stomata, closure ([1]; GFP transformed guard cells, ABA 25 μM): −2.52 ± 0.29 (36) micrometers
- change in half aperture of stomata, opening ([2]; AAPK(K43A)-GFP transformed guard cells): 0.42 ± 0.17 (46) micrometers
- change in half aperture of stomata, opening ([2]; AAPK(K43A)-GFP, untransformed guard cells): 0.44 ± 0.15 (46) micrometers
- change in half aperture of stomata, opening ([2]; AAPK-GFP column, untransformed guard cells): 0.41 ± 0.28 (36) micrometers
- change in half aperture of stomata, opening ([2]; AAPK-GFP transformed guard cells): 0.43 ± 0.22 (36) micrometers
- change in half aperture of stomata, opening ([2]; GFP column, untransformed guard cells): 0.45 ± 0.27 (36) micrometers
- change in half aperture of stomata, opening ([2]; GFP transformed guard cells): 0.42 ± 0.22 (36) micrometers
- effect on slow anion channels (slow anion channels; V. faba guard cells): activated
- effect on anion current magnitude (slow anion channels; whole-cell configuration): increased
- histone phosphorylation activity of immunoprecipitate after ABA treatment of protoplasts (AAPK): significantly enhanced
